# Source: ChEMBL document CHEMBL1926634, “Structure-guided evolution of potent and selective CHK1 inhibitors through scaffold morphing” (J Med Chem, 2011)
# Target: T1, Serine/threonine-protein kinase Chk1 (Homo sapiens, UniProt O14757)
# T1 sequence (O14757 whole entry): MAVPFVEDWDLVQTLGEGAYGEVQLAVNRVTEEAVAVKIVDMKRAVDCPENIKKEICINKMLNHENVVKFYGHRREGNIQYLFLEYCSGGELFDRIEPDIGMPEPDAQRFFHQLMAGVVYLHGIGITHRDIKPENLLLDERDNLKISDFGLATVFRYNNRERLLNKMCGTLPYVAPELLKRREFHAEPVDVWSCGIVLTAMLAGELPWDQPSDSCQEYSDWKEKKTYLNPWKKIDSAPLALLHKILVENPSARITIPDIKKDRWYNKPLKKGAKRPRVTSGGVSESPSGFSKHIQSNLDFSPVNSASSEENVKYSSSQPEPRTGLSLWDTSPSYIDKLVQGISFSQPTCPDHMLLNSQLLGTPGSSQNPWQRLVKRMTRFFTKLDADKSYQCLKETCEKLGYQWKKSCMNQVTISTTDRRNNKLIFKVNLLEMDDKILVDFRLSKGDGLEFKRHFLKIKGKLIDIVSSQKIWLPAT
# Description: Competitive inhibition of human CHK1 using ATP as substrate by DELFIA
row,Structure (SMILES),IC50 [µM]
1,N#Cc1cccc(-c2c[nH]c3ncnc(N4CCOC(CN)C4)c23)c1 (configuration not stated),3.2
2,N#Cc1cnc(Nc2cc(NCC3CCOCC3)ncn2)cn1,20
3,NCCCNc1ncnc2[nH]c3cnccc3c12,1.7
4,NCC1CCN(c2ncnc3[nH]c4cnccc4c23)CC1,0.29
5,NCC1CCN(c2cc(Nc3cnccn3)ncn2)CC1,22
6,NC1CCN(c2ncnc3[nH]c4cnccc4c23)CC1,0.67
7,c1cncc(Nc2cc(NCC3CCNCC3)ncn2)c1,122
